These results are taken from ChEMBL document CHEMBL3045945, “INHIBITORS OF FILARIAL GAMMA-GLUTAMYL CYCLE ENZYMES AS POSSIBLE MACROFILARICIDAL AGENTS” (Med Chem Res, 2004).

Where a name gives a salt, the structure may show the parent alone. Activity calls are given as the source filed them. The rule behind the calls is not given here.

The target in one test is Glutathione hydrolase 1 proenzyme (Rattus norvegicus, UniProt P07314). Briefly: Inhibition of Rattus norvegicus Wistar (rat) rat Gamma-glutamyltranspeptidase using L-gamma-glutamyl-p-nitroanilide as substrate incubated for 15 min prior to substrate addition by spectrophotometric analysis.
Glutathione hydrolase 1 proenzyme, sequence (P07314 1-379 limits assumed): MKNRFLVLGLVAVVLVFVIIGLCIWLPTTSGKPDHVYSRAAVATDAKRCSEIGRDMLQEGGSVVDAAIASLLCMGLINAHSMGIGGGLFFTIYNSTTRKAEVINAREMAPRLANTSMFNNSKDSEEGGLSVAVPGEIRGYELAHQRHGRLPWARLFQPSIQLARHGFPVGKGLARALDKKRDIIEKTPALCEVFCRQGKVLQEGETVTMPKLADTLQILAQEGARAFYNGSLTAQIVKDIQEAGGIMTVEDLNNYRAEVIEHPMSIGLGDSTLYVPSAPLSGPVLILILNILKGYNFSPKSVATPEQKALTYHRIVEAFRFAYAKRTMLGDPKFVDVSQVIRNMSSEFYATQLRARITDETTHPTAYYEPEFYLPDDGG
Glutathione hydrolase 1 proenzyme, sequence (P07314 380-568 limits assumed): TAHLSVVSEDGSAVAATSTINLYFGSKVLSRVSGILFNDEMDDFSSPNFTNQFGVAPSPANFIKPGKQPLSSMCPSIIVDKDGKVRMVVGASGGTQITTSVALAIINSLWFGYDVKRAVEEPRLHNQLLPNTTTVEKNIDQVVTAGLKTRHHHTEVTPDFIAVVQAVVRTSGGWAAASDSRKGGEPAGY
The Ki is the dissociation constant of the complex between target and ligand, obtained from inhibition or displacement. Read a high Ki as a looser hold on the target. In the case of `N[C@@H](CO)C(=O)O` [SERINE], the Ki was found to be 50 µM.

Another test has as its system Setaria cervi. In words: Antifilarial activity against Setaria cervi assessed as change in GSH level at 250 uM after 6 hr by RP-HPLC analysis. Type of test: functional.
For `CCCCCCCCCCCCCC(=O)Oc1ccc2c(C)cc(=O)oc2c1`, the result was inactive. As to `CN(C)c1ccc2nc3ccc(N(C)C)cc3[s+]c2c1.[Cl-]` [METHYLENE BLUE ANHYDROUS], the Activity is reported as 34.68%. In the case of `CCCc1cc(=O)oc2cc(OCC(=O)OCC)ccc12`, the Activity was 5.75%. As for `Cc1cc(=O)oc2cc(OCC(=O)NC3CCCCC3)ccc12`, the Activity worked out at 46%. As for `CCOC(=O)CC(NCCCNC(CC(=O)OCC)[C@@H]1O[C@H]2OC(C)(C)O[C@H]2[C@@H]1OCc1ccccc1)C1O[C@@H]2OC(C)(C)OC2[C@H]1OCc1ccccc1` (single isomer, unassigned), the Activity is recorded as 59.12%. For `CCCCS(=N)(=O)CC[C@H](N)C(=O)O` (some centres not stated) [BUTHIONINE SULFOXIME], the Activity came to 35.78%. For `CC1(C)O[C@@H]2O[C@@H](CNCCCCCCCCCCNC[C@H]3O[C@@H]4OC(C)(C)O[C@@H]4[C@H]3OCc3ccccc3)[C@@H](OCc3ccccc3)[C@@H]2O1`, the Activity was 52.5%. As for `CO[C@@H]1[C@H]2OC(C)(C)O[C@H]2O[C@@H]1CNCCCCCCCCCCNC[C@@H]1O[C@H]2OC(C)(C)O[C@H]2[C@@H]1OC`, the Activity came to 33.14%. Consider `Cc1cc(=O)oc2cc(OCC(=O)NCCCCCCCCCCCCN)ccc12`, for which the Activity was 3.22%.

Regarding `CCOC(=O)CC(NCCCCCCCCCCNC(CC(=O)OCC)[C@@H]1O[C@H]2OC(C)(C)O[C@H]2[C@@H]1OCc1ccccc1)[C@H]1O[C@@H]2OC(C)(C)O[C@@H]2[C@H]1OCc1ccccc1` (some centres not stated), the Activity was 58.17%. The same measure, in the same setting: under `CC1(C)O[C@@H]2O[C@@H](CNCCCCCCCNC[C@H]3O[C@@H]4OC(C)(C)O[C@@H]4[C@H]3OCc3ccccc3)[C@@H](OCc3ccccc3)[C@@H]2O1` stands 69.29%; under `CCOC(=O)CC(NCCCCCCCNC(CC(=O)OCC)[C@@H]1O[C@H]2OC(C)(C)O[C@H]2[C@@H]1OC)[C@H]1O[C@@H]2OC(C)(C)O[C@@H]2[C@H]1OC` (some centres not stated), 39.04%. With `COC(=O)/C=C\C(=O)OC` [DIMETHYL MALEATE], the Activity amounted to 95.82%. Regarding `CCOC(=O)CC(NCCCCCCCCCCNC(CC(=O)OCC)[C@@H]1O[C@H]2OC(C)(C)O[C@H]2[C@@H]1OC)[C@H]1O[C@@H]2OC(C)(C)O[C@@H]2[C@H]1OC` (some centres not stated), the Activity is recorded as 48%. As for `CO[C@H]1[C@@H](CNCCCCCCCNC[C@@H]2O[C@H]3OC(C)(C)OC3[C@@H]2OC)OC2OC(C)(C)O[C@@H]21` (single isomer, unassigned), the Activity is 52.54%. As for `CCOC(=O)CC(NCCCCCCCCCCCCNC(CC(=O)OCC)[C@@H]1O[C@H]2OC(C)(C)O[C@H]2[C@@H]1OC)[C@H]1O[C@@H]2OC(C)(C)O[C@@H]2[C@H]1OC` (stereo in doubt), the Activity was 37.43%. On the same count and under the same terms, under `CO[C@@H]1[C@H]2OC(C)(C)O[C@H]2O[C@@H]1CNCCCCCCCCCCCCNC[C@@H]1O[C@H]2OC(C)(C)O[C@H]2[C@@H]1OC` (stereo in doubt) stands 39%; under `CCOC(=O)CC(NCCCCCCCCCCCCNC(CC(=O)OCC)[C@@H]1O[C@H]2OC(C)(C)O[C@H]2[C@@H]1OCc1ccccc1)[C@H]1O[C@@H]2OC(C)(C)O[C@@H]2[C@H]1OCc1ccccc1` (some centres not stated), 67%; under `CC1=CC(=O)c2ccccc2C1=O` [MENADIONE], 96.04%. For `CC(C)=CC(=O)C=C(C)C` [PHORONE], the Activity was determined as 93.7%.

Take `CCOC(=O)CC(NCCCCCCCNC(CC(=O)OCC)[C@H]1O[C@@H]2OC(C)(C)OC2[C@H]1OCc1ccccc1)C1OC2OC(C)(C)O[C@H]2[C@@H]1OCc1ccccc1` (single isomer, unassigned): the Activity is listed as 15.9%.

`O=NN(CCCl)C(=O)NCCCl` [CARMUSTINE]: the Activity was determined as 68.97%. Regarding `Cc1cc(C)c2c(C)cc(=O)oc2c1`, the Activity is recorded as 65%. Regarding `CCOC(=O)CC(NCCCNC(CC(=O)OCC)[C@@H]1O[C@H]2OC(C)(C)O[C@H]2[C@@H]1OC)[C@H]1O[C@@H]2OC(C)(C)O[C@@H]2[C@H]1OC` (some centres not stated), the Activity stood at 14.55%.

In the case of `Cc1cc2oc(=O)cc(C)c2cc1C`, the Activity stood at 42.07%. As for `CC1(C)O[C@@H]2O[C@@H](CNCCCCCCCCCCCCNC[C@H]3O[C@@H]4OC(C)(C)O[C@@H]4[C@H]3OCc3ccccc3)[C@@H](OCc3ccccc3)[C@@H]2O1`, the Activity stood at 60%.
